# Laboratory results from a melting point compilation (Tetko et al.; mined from patent text by program, amines drawn as free bases though some values may be those of a salt).
row,Compound,melting point
1,COc1cc(N)c(Cl)cc1C(=O)NCC1CCN(CCCCCC(=O)c2ccc(C)cc2C)CC1,106 to 110 °C
2,O=C(O)c1ccc(S(=O)(=O)CCO)c([N+](=O)[O-])c1,190 to 192 °C
3,CC(O)(c1nc(-c2ccc(F)cc2)c(-c2ccc(F)cc2)[nH]1)C(F)(F)F (centres undefined),191 to 192 °C
4,CCC(Oc1cc(C)c(Cl)c(C)c1)C(=O)NCc1cccs1 (centres undefined),105 to 107 °C
5,CCCCc1nc(=O)c2cc(I)ccc2[nH]1,258 to 260 °C
6,COc1ccc(Br)c2nc(SCc3ccccc3)nn12,78 to 79 °C
7,Cc1ccc(-c2cc(Cl)c3ccc(C)cc3n2)cc1,110 to 111 °C
8,c1ccc(-c2ccc3[nH]c4c(ccc5cc[nH]c54)c3c2)cc1,> 250 °C
9,NC(=O)c1cccc(-c2ccc(F)c3cc(Cc4cccc(C(F)(F)F)c4)sc23)c1,139 to 140 °C
10,NCC1CCCN(c2c(F)cc3c(=O)c(C(=O)O)cn(C4CC4)c3c2F)C1 (centres undefined),242 to 243 °C
11,CCOC(=O)C1=C(C)NC(C=O)=C(C(=O)OCC)C1c1ccccc1OC (centres undefined),111 to 112 °C
12,Cc1cc(=O)on1C(=O)c1ccc(Cl)cc1Cl,137 to 139 °C
13,Oc1c(F)cc(Cn2c(S)nc3ccccc32)cc1F,200 °C
14,COC(=O)c1ccc(OCCOc2ccccc2)cc1,92 to 93 °C
15,CCOC(=O)c1cnoc1-c1ccc([N+](=O)[O-])cc1,73 to 76 °C
16,CCCc1nc(-c2cccnc2)cnc1NN,162 to 163 °C
17,CC(=O)c1c(-c2ccc(F)cc2)ncn1C1CC(C)(C)NC(C)(C)C1,134 to 136 °C
18,N#Cc1cn(-c2ccc(Cl)cc2)c(=O)[nH]c1=O,236 to 239 °C
19,CNC(=O)Oc1c(C)cc(C)c2c1CC(C)C2(C)C (centres undefined),130 to 131 °C
20,COC(=O)C1Cc2c([nH]c3ccccc23)C(C)N1Cc1ccccc1 (centres undefined),143 to 144 °C
21,CC(CCCI)C(=O)Nc1nnc(C(C)(C)C)s1 (centres undefined),102 °C
22,CC(=O)Nc1nc(CCc2ccc(CCl)cc2)c(Cc2ccc(S(C)(=O)=O)cc2)s1,202 to 203 °C
23,OCC(Cl)=C(Cl)CC(O)(Cn1cncn1)C1(Cl)CC1 (centres undefined),130 to 132 °C
24,O=C1Cc2cccc3c2N1CCC3,90 to 93 °C

row,Compound,melting point
1,CC(C)NC(=O)OCC(=O)c1ccc(Cl)cc1,163 to 164 °C
2,CCCc1ccc(OC)c(-c2csc(NC(=O)NN3CCN(CCCN4CCOCC4)CC3)n2)c1,229 °C
3,N#CCc1c[nH]c2ccc(CS(N)(=O)=O)cc12,184 to 185 °C
4,CCOC(=O)c1c(C2CC2)nn(CC)c1Cc1ccc(-c2ccccc2-c2nnn[nH]2)cc1,73 to 77 °C
5,CON=C(C(=O)O)c1nc(NC=O)ccc1Cl,151 to 154 °C
6,COCOc1ccc(-c2ncc3ccc(-c4csc(CN5CCOCC5)c4)nc3n2)cc1,> 268 °C
7,CC(C)(C)OC(=O)N[C@H](Cc1ccc(C(F)(F)F)o1)[C@@H](O)c1ccc(F)cc1 (racemic),111 to 112 °C
8,CCOC(=O)Cc1ccc(N[C@@H](CCC(N)=O)C(=O)O)cc1,180 °C
9,CC(C)(C)OC(=O)N1CCN(c2cccc3c2cnn3S(=O)(=O)c2ccccc2)CC1,130 °C
10,CCOC(=O)CCCCc1oc(=O)[nH]c1-c1ccc(Cl)cc1,143 to 144 °C
11,COc1cc(OC)c(CSC(C)(C)CC(=O)O)c(OC)c1,103 to 105 °C
12,COc1cc(OC)c2c(c1)OC(C)(C)CC2=O,104 to 105 °C
13,COc1cc(Nc2nc3cccc(-c4cccc(Cl)c4)c3o2)cc(OC)c1OC,199 to 201 °C
14,CCOC(=O)C(=CNc1nccs1)C(=O)c1c(Cl)cc(Cl)nc1Cl,126 to 127 °C
15,CCOC(=O)c1cn(C)c2cc(OC)ccc2c1=O,198 to 200 °C
16,CC(=O)N1CCN(c2c(F)cc3c(=O)c(C(=O)O)cn(C4CC4)c3c2C)CC1C (centres undefined),219 to 221 °C
17,c1ccc(-c2cc(OCCN3CCOCC3)[nH]n2)cc1,100 °C
18,Cc1cc(-c2cc(C(F)F)n3ncc(C(=O)Nc4cccc(S(=O)(=O)N5CCN(C)CC5)c4)c3n2)ccc1C(F)(F)F,198 °C
19,COCCCCNC(=O)C(c1ccccc1)c1ccccc1,75.5 to 76.8 °C
20,COc1cc2cncnc2cc1OC,235 to 237 °C
21,O=C(O)CCCNc1nc2ccccc2c(=O)o1,147 to 148 °C
22,O=C(O)C(Cl)=C(Cl)C(O)=NCCc1ccc(F)cc1,137 to 138 °C
23,CCCC12CCC(=O)C=C1c1c(cc(OCC(=O)OCC)c(Cl)c1Cl)C2OC(C)=O (centres undefined),128 to 130 °C
24,CC(=O)N1CCN=C1Nc1cc(C)nn1-c1ccc(Cl)c(Cl)c1,156 to 157 °C

# Second part, the compound after the results:
row,melting point,Compound
1,103 to 106 °C,CCOC(=O)C1(NC=O)Cc2cccc3c2N(CCC3)C1=O (centres undefined)
2,152 °C,CCc1cccc(CC(=O)O)c1OCCCc1cn(-c2ccc(Br)cn2)nc1C(C)C
3,100 to 102 °C,O=C(/C=C/C=C(c1cccc(Cl)c1)c1cccc(Cl)c1)NCCCCc1cccnc1
4,281 to 282 °C,O=C(O)c1cn2c3c(cc(F)cc3c1=O)C1CCCCC12 (centres undefined)
5,105 °C,CC(C)CCNC(=O)c1ccc2c(c1)N(C(C)CN(C)C)c1ccccc1S2 (racemic)
6,155 to 157 °C,O=c1cc2c(nn1-c1ccccc1)-c1ccccc1CC2
7,151 to 155 °C,NCc1ccccc1CC(=O)O
8,79 to 81 °C,CCOC(=O)c1cnc2sc3c(n12)CCCCCC3
9,212 to 214 °C,Cc1oc(-c2ccc(C(F)(F)F)cc2)nc1-c1ccc2c(Br)c(OCC(=O)O)ccc2c1
10,113 °C,CC(COc1c(-c2ccccc2)c(=O)oc2ccccc12)CN1CCOCC1 (centres undefined)
11,265 °C,Cn1cc(-c2cc(-c3cnc4[nH]ccc4c3)ccn2)n(-c2cccc(C#N)c2)c1=O
12,75 to 78 °C,BrCc1cc2ccc3ccccc3c2s1
13,55 to 65 °C,O=C(N[C@@H](Cc1ccccc1)C(=O)COC(=O)N1CCC[C@H]1C(=O)O)c1ccccc1
14,84 to 86 °C,Cc1cc(SC(C)C)c(NC(=O)CCCCCSc2nc3ccccc3s2)c(SC(C)C)n1
15,137 °C,COc1nc(C(F)(F)F)cc(=O)n1-c1cc(OC(C)C)c(Br)cc1F
16,147 to 148 °C,Cc1cc2ccc(Cl)c(C)c2nc1-n1cncn1
17,94 °C,O=C(NCc1ccccc1)C1(CCCc2ccccc2)c2ccccc2-c2ccccc21
18,171 to 172 °C,COC(=O)c1cccc(NC(N)=S)c1
19,162 to 165 °C,O=C(Nc1ccc(-c2ccnc3c(C(=O)c4cccs4)cnn23)s1)c1ccccc1

row,melting point,Compound
1,> 250 °C,O=C(O)C1=Cc2c(ccc3occ(-c4ccc(Br)cc4)c23)OC1C(F)(F)F (centres undefined)
2,176 to 178 °C,CC(C)C[C@H](NC(=O)[C@H](Cc1c[nH]cn1)NC(=O)[C@H](Cc1cccc2ccccc12)NC(=O)OCc1ccccc1)[C@H](O)CO
3,107 to 108 °C,OC(CCc1ccc(OCc2ccccc2)c(OCc2ccccc2)c1)C1CCCCC1 (centres undefined)
4,140 to 141 °C,COc1ccc(N2CCN(c3c(C)c(C)c4c(c3C)C(CO)C(C)(C)O4)CC2)cc1 (centres undefined)
5,100 to 101 °C,CCOC(=O)Cc1ccc2cc(Br)ccc2n1
6,58 to 62 °C,CC(=O)OCCC1(C)CCc2c(C)c(OCc3ccccc3)c(C)c(C)c2O1 (centres undefined)
7,131 to 134 °C,CC(=O)Oc1ccccc1-c1ccc(Cl)nn1
8,114 °C,CNCc1ccc2oc(-c3ccccc3C#N)c(Br)c2c1
9,72 to 78 °C,O=C1OCCC=C1c1ccc(F)c(F)c1
10,124 °C,CNC(=S)C1(c2ccc3ccccc3n2)CCCS1 (centres undefined)
11,246 to 247 °C,Cc1ccc2oc(S(=O)(=O)c3ccc(=O)[nH]n3)c(C)c2c1
12,120 to 123 °C,COC(=O)N1CCc2ccc(C(=O)CCC3CCN(C(=O)c4ccccc4)CC3)cc2CC1
13,148 to 149 °C,CC(C)Oc1c(C(=O)O)sc2c1CSCC2
14,158 to 160 °C,CS(=O)(=O)Nc1cc(C(O)CNC2CCN(c3ccc(CC4SC(=O)N(CC(=O)O)C4=O)cc3)CC2)ccc1O (centres undefined)
15,297 to 299 °C,Cc1cc(C)c2c(n1)Nc1ccccc1NC2=O
16,68 to 69 °C,CC(C)(C)n1ncc(OCc2ccc(OC(F)(F)C(F)OC(F)(F)F)cc2)c(Cl)c1=O (centres undefined)
17,187 to 190 °C,Cc1nc(-c2ccccc2)oc1C(N)=O
18,162 to 164 °C,CC(C)NCC(O)COc1cccc(-c2nc(C(F)(F)F)c[nH]2)c1 (centres undefined)
19,252 °C,CCOc1ccc2c(c1)n(C1CCCCC1)c(=O)n2S(=O)(=O)c1ccc(C(=O)NC(C)(C)C)cc1OC

row,melting point,Compound
1,72 to 76 °C,O=C(Cl)c1c(Cl)c(Cl)c(C(F)(F)F)c(Cl)c1Cl
2,55 to 56 °C,CCCCCCn1cnc(NC)c1C(=O)NCCCCCCOc1ccc(Cl)cc1
3,185 °C,CC(=O)OC1CSC(Oc2cc(F)cnc2Cl)C(OC(C)=O)C1OC(C)=O (centres undefined)
4,142 to 143 °C,COc1cccc(C(=O)Nc2ccc3c(c2)CCCC3=O)c1
5,123 to 124 °C,CCOCCc1nnc(S)n1N
6,92 to 93 °C,CON1C(C)(C)CC(O)CC1(C)C
7,95 °C,Oc1cc2c(cc1Cl)OCO2
8,55 to 57 °C,Cc1cc(C2=C(c3cc(C)sc3C)CCC=C2)c(C)s1
9,150 to 151 °C,CC(C)Cn1c(=O)n(C)c(=O)c2c(Sc3cccc(O)c3)n(Cc3cccc4ccccc34)cc21
10,270 to 272 °C,O=C(NCCc1ccccc1F)c1c(Cl)ccc2nc(N3CCC(C(=O)O)CC3)ccc12
11,184 to 185 °C,COC(=O)[C@H](O)[C@@H](NC(=O)c1ccccc1)c1ccccc1
12,80 to 81 °C,COC(=O)[C@H](O)CCCc1ccc(OCc2nc(-c3ccco3)oc2C)c(OC)c1
13,178 to 179 °C,CCOc1cc(N(Cc2cccnc2)c2ccc(C(=O)O)cc2)ccc1OC(F)F
14,83 °C,CCCCCCCCCCCCCC(=O)c1cc(O)c(C)cc1O
15,136 to 137 °C,O=c1oc(-c2ccccc2)cc(O)c1SCC1CC1
16,230 °C,CCCC(=O)Nc1n[nH]c2cc(Cl)ccc12
17,73 °C,CCCCCc1ccc(-c2ccc(CCC3(C#N)CCCC(C)C3)cc2)cc1 (centres undefined)
18,43 to 46 °C,CC(O)CCCCCCCCc1ccc(O)c(O)c1 (centres undefined)
